# Experimental data from patent US20160199481A1 (priority 2013, published 2016).
# “Also recorded” adds a separate entry of the source.
# Key:
# Assay type in all cases: cell-based, influenza A
# [1] = tested on: WT HA/G147R NA virus
# [2] = tested on: PassMut HA/G147R NA virus
# [3] = tested on: WT HA/G147R NA virus; remark: listed apart in the source
# [4] = tested on: PassMut HA/G147R NA virus; remark: listed apart in the source
# [5] = tested on: G147R NA-only VLPs
substance,measurement,setting,value
oseltamivir,neutralization of infectivity (percent infectivity remaining),[1],partially neutralized by oseltamivir; also recorded: intermediate phenotype
same,neutralization of infectivity (percent infectivity remaining),[2],nearly completely neutralized by oseltamivir; also recorded: strongly neutralized at low nanomolar oseltamivir concentrations
same,inhibition of agglutination by oseltamivir,[3],uninhibited at all oseltamivir concentrations tested
same,oseltamivir concentration down to which agglutination was inhibited,[4],1.5 nM
same,oseltamivir concentration down to which agglutination was inhibited,[5],0.12 nM
same,reversal of agglutination by G147R VLPs,[5],reversed the agglutination
